Measurements published in US20120135089A1, “E3 LIGASE INHIBITORS” (priority 2009, published 2012).
“Also recorded” adds a separate entry of the source.

Assays:
[1] = test system: Mdm2, p21, puma, and bax transcripts; assay: qRT-PCR of p53 target genes in RKO cells; format: cell-based, human; details: 5 μg/ml MEL23, 24 or 48 hours
Description: (§1) RKO cells were treated with 5 μg/ml (14 μM) MEL23 for 24 or 48 hours. Quantitative real-time PCR was used to analyze the mRNA levels of the Mdm2, p21, puma, and bax transcripts. All values are normalized to no treatment, DMSO control. The figure is representative of three independent experiments and standard error bars represent intra-experimental error.
as §1, with “48 hours, 0.1 μg/ml (0.2 μM) doxorubicin for 48 hours, or 10 μM ALLN for 24” for “48”, “analyze” for “analyze the”, “were” for “are”, “treatment (NT),” for “treatment,”
RNA was harvested using RNeasy Mini kit (Qiagen, Cat. No. 74104) and first-strand cDNA synthesis was performed with the TaqMan Reverse Transcription Reagents for qRT-PCR (Applied Biosystems Inc., Foster City, Calif., Cat. No. N8080234) according to the manufacturers' protocol. Samples were analyzed by quantitative real-time PCR on an ABI 7300 real-time PCR instrument (Applied Biosystems) using the ΔΔCT method. PCR reaction mixtures contained 75 ng of cDNA, 1×SYBR Green Mix (Applied Biosystems, Cat. No. 4367659), and 100 nM primers. Values were normalized to those of the hprt1 housekeeping gene (47).

[2] = test system: p53/Mdm2, p53/MdmX or Mdm2/MdmX complex; assay: co-immunoprecipitation of p53/Mdm2/MdmX complexes in MCF7 cells; format: cell-based, human; details: 10 μg/ml, 6 hours
Description: MCF7 cells were seeded in a 10-cm dish overnight and treated for 6 hours with 10 μg/ml (28 μM) MEL23, 5.3 μg/ml (10 μM) Nutlin-3a or DMSO. […] The experimental conditions of the results shown in FIG. 33B were as follows: FLAG-Mdm2 was transfected into cells and after 24 hours, treated with compounds, and cell lysates were incubated with anti-FLAG M2 antibody for 2 hours, followed by incubation with Protein-A/G sepharose beads for an hour at 4° C. Beads were washed and proteins eluted with 5×SDS and separated on SDS-PAGE.

[3] = molecular target: T1, full-length Flag-Mdm2 (Homo sapiens, UniProt Q00987); assay: in vitro ubiquitination assay, full-length Flag-Mdm2; format: biochemical
T1 construct: 100 ng of full-length Flag-Mdm2; made in house; host or cells: Sf9 insect cells (baculovirus; virus a gift from S. Grossman)
T1 sequence (Q00987 whole entry): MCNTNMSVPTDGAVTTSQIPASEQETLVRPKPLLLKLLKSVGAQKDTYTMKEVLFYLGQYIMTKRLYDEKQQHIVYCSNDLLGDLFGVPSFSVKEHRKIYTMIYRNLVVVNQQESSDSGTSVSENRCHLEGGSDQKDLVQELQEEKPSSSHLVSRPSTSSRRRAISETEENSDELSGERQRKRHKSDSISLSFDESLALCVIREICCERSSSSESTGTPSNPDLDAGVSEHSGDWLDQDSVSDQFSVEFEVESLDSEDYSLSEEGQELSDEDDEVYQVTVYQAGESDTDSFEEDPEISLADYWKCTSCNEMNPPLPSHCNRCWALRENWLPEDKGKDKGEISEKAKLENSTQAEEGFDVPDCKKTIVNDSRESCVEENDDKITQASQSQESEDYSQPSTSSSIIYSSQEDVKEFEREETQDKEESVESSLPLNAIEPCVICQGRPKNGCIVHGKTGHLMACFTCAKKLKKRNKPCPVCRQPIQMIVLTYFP
Description: These assays were performed with 100 ng of full-length Flag-Mdm2 or 200 ng of Flag-Mdm2/HA-MdmX complexes (100 ng of each protein as each are present in a 1:1 ratio, when purified), ^32P-labeled ubiquitin, UbCH5c, and E1. Following a 30-minute incubation at 37° C., reactions were terminated and resolved on a SDS-PAGE gel followed by autoradiography. PC indicates positive control, and NC indicates negative control with UbCH5C eliminated from the reaction. The gels were quantified by phosphoimaging using ImageQuant software (GE Healthcare Bio-Sciences Corp., Piscataway, N.J.). […] Reactions were performed as in FIG. 11A except 500 ng GST-Mdm2 (residues 400-491) and GST-MdmX (residues 400-490) were used for ubiquitin polymerization. […]
Full-length Mdm2 in vitro ubiquitination reactions were performed in 15 μl reaction mixtures containing 50 mM TrisHC1 pH 7.5, 5 mM MgCl2, 2 mM NaF, 2 mM ATP, 0.6 mM DTT, 50 ng E1 (Boston Biochem, Cat. No. E-305), 1 μg PK-ubiquitin, 50 ng His-UbCH5C, and 100 ng Flag-Mdm2. […] The products were resolved by SDS-PAGE and analyzed by Western blot with anti-p53, anti-Mdm2 SMP14, 2A10, 3G5 mix, or anti-MdmX antibodies. […]
Referring now to FIG. 28b, as shown, Mdm2 in vitro ubiquitination is not inhibited by MEL17 treatment. […] Samples were analyzed by Western blotting with anti-Mdm2 antibodies. […]

[4] = test system: U2OS (p53 wild-type) and H1299 (p53 null) cells; assay: combination viability assay, excess over Bliss independence; format: cell-based, human
Description: All values were normalized to no treatment. […] Percent cell death was determined by normalization to a no treatment control. Bliss Independence was determined by the formula C=A+B−A*B, where A is treatment with one compound alone and B is treatment with the second compound alone.
Cells were then treated with the indicated concentration of compound. […] Fluorescence intensity was determined using the Victor3 Plate Reader (PerkinElmer). Median percent survival or growth inhibition was calculated and normalized to a no treatment control.
The excess over the predicted Bliss independence was determined by subtracting the predicted Bliss effect for each treatment from the experimentally determined growth inhibition for the same treatment.

In the case of `CCCCn1c(=O)[nH]c(O)c(C2NCCc3c2[nH]c2ccccc32)c1=O` (stereo not drawn) [MEL23], the “mRNA levels of p53 target genes Mdm2, p21, Bax, puma” value [1] is reported as “increased within 48 hours of treatment; also recorded: increased the transcription of p53 target genes to intermediate levels compared to doxorubicin and ALLN”, the “complex formation (co-immunoprecipitation)” value [2] is reported as “did not inhibit p53-Mdm2 complex formation; also recorded: does not inhibit” and the “Mdm2 ligase activity (full-length Mdm2 in vitro ubiquitination)” value [3] is reported as “little to no inhibitory effect”. The “synergy of MEL23 with Nutlin-3 on viability” value ([4]; 48 hours, excess over Bliss independence) was “Synergy between MEL23 and Nutlin-3 occurred, but to a lesser extent than the combination of MEL23 and DNA-damaging agents”, the “synergy with DNA damaging agents in p53-null cells” value ([4]; H1299 (p53-null)) was “synergized with DNA damaging agents; also recorded: cooperated with DNA-damaging agents in p53-null cells to a small, yet reproducible, extent” and the “synergy with camptothecin or etoposide on viability” value ([4]; U2OS and H1299, 48 hours, excess over Bliss independence) was “synergistic effect on viability”.
